Source: patent publication US10144929B2, “Polypeptide inhibitors of Smad3 polypeptide activities” (Mayo Foundation for Medical Education and Research, priority 2016, dated 2018)

System: Smad2 targets (MMP2, Goosecoid, Furin, MixL)
Experiment: RT-PCR/qPCR of Smad2 responsive genes in AKR-2B cells
Format: cell-based
Details: 5 ng/mL TGFβ, 24 hours
Method: FIGS. 2A-C. TAT-SH3 inhibits Smad3-dependent responses. (A) AKR-2B cells were transiently transfected with a Smad3 (3TP), Smad2 (ARE), or Smad1/5/8 (BRE) reporter construct, and luciferase activity determined following 12 hours incubation in the absence (−) or presence (+) of the indicated ligand (5 ng/mL TGFβ; 10 ng/mL BMP4) or TAT-SNX9(SH3) fusion polypeptide (1.5 μM). Data represent the mean+/−SEM of three experiments. (B) RT-PCR analysis of Smad3 (PAI-1 and CTGF) and Smad2 (MMP2) responsive gene following 24 hour treatment of AKR-2B cells with the indicated concentration of TAT-SNX9(SH3) fusion polypeptide or 5 ng/mL TGFβ. Loading was verified by GAPDH expression. (C) Soft agar colony formation was performed following seven days growth in the presence (+) or absence (−) of TGFβ (10 ng/mL) or the indicated TAT-SNX9(SH3) fusion polypeptide (1.5 μM). […]
FIGS. 3A-E. Inhibition of Smad3 signaling by a defined region of the SH3 domain in SNX9. […] (B) Nuclear fractions were prepared and assessed as in FIG. 1B following transduction with the indicated TAT-SNX9(SH3) fusion polypeptide (Left). Quantitation (mean+/−sd) of nuclear pSmad2 or pSmad3 from 2 experiments (Right). (C) Immunofluorescence of nuclear Smad3 was determined as in FIG. 1C from 30 cells in each of two experiments in the absence (−) or presence (+) of 5 ng/mL TGFβ and the indicated TAT-SNX9(SH3) fusion polypeptide (1.5 μM). […]

Row | Substance | induction of Smad2 targets
1 | TAT-SH3-2: TAT-SNX9(SH3) fusion polypeptide having SNX9 amino acids 21-51 (31 mer) (TVNEGEIITITNPDVGGGWLEGRNIKGERGL; left off: small tags and cut ends) | Neither polypeptide impacted the induction of Smad2 targets
2 | TAT-SH3-2M: TAT-SH3-2 with G to V point mutations at amino acids 36-38; inactive TAT-SNX9 peptide unable to bind pSmad3 (TVNEGEIITITNPDVVVVWLEGRNIKGERGL; left off: small tags and cut ends) | Neither polypeptide impacted the induction of Smad2 targets
